Test system: human adipocytes
Test: Lipolysis activation on human adipocytes in vitro (glycerin release)
Assay type: cell-based
Conditions: 90 minutes at 37° C.
Source text: I. Evidence of the Lipolysis Activation Effect on Human Adipocytes in “in vitro” Survival The test used to emphasise the lipolysis activation of human adipocytes in the presence of Cecropia extracts, which are the subject of the present invention, is described below. Lipolysis is removal of triglycerides (or TG) stored in the adipocytes by a hormone-sensitive enzyme, triglyceride lipase (or TGL) which splits the TG into free fatty acids and glycerin which are removed in the blood circulation. The fatty acids can then be absorbed by the muscle cells to produce energy. 1) Principle of the in vitro Test Activation of lipolysis is evaluated by spectrophotometric metering of the rate of glycerin salted out by adipocytes, incubated “in vitro” with the substance to be tested present. The adipocytes are isolated by enzymatic digestion of subcutaneous human tissue by the so-called Rodbell method (see M. Rodbell: “Metabolism of isolated fat cells”. The journal of biological chemistry, Vol. 239, No. 2, pages 375 to 380, 1964). […] 3) Quantisation of the Lipolysis The rate of salted-out glycerin is quantified by spectrophotometry in the medium of the material which floats on the surface by the method described by C. […] The results are expressed as mean values of the activation percentage relative to a proof mass batch (without Cecropia extract).

| SMILES | % activation of the lipolysis relative to the proof mass without extract (mean) (0.1 μM) | % activation of the lipolysis relative to the proof mass without extract (mean) (1 mM) |
| --- | --- | --- |
| CC(C)NCC(O)c1ccc(O)c(O)c1 (centres unmarked) [Isoprenaline, isoprenaline] | + 45% |  |
| Cn1c(=O)c2[nH]cnc2n(C)c1=O [Theophylline, theophylline] |  | + 70% |

Source: US6403125B1, “Utilization of an extract of a plant of the Cecropia genus” (Cognis France (Societe Anonyme), priority 1998, dated 2002)
